Results as given in US20210386756A1, “IMPROVEMENTS FOR PERFORMING AND FACILITATING THE RECOVERY AFTER HEMATOPOIETIC STEM CELL TRANSPLANTATION” (Centro de Investigaciones Energéticas, Medioambientales y …, priority 2018, published 2021).

Assays:
human cord blood CD34+ = assay: Human engraftment in male NSG mice transplanted with a limited CD34+ cell dose (5×10^3); format: in vivo, mouse
Method: FIG. 6A indicates the level of human engraftment, which was raised by E4 administration. […] (Kruskal-Wallis test; P=0.1150, 7-10 mice per group). […] Three-four months later, the animals were sacrificed and the human hematopoietic engraftment was analyzed by FACS. Human hematopoietic population was identified as the cells positive for hCD45-APC-Cy7 (Biolegend) and negative for mouse CD45.1-PE (Biolegend). To determine whether estrogen can improve hematopoietic reconstitution of low number of hematopoietic progenitors, male NSG were irradiated and transplanted with low doses of human cord blood CD34+ (5×103 hCD34+). The human engraftment was analyzed as described in Example 1.

[1] = tested on: human cord-blood CD34+ cells; assay: Human hematopoietic engraftment in male NSG mice transplanted with 5×10^4 human cord-blood CD34+ cells; format: in vivo, mouse
Method: Three-four months later, the animals were sacrificed and the human hematopoietic engraftment was analyzed by FACS. Human hematopoietic population was identified as the cells positive for hCD45-APC-Cy7 (Biolegend) and negative for mouse CD45.1-PE (Biolegend). In order to further examine the effect of the estrogen in HSCT, hematopoietic progenitors (hCD34+) and hematopoietic stem cells (hCD34+/hCD38−) were analyzed by FACS inside of the human population in the treated NSG described in Example 1.

ESRα = molecular target: T1, ESRα (Homo sapiens, UniProt P03372); conditions: cited from earlier work
T1 sequence (P03372 1-595): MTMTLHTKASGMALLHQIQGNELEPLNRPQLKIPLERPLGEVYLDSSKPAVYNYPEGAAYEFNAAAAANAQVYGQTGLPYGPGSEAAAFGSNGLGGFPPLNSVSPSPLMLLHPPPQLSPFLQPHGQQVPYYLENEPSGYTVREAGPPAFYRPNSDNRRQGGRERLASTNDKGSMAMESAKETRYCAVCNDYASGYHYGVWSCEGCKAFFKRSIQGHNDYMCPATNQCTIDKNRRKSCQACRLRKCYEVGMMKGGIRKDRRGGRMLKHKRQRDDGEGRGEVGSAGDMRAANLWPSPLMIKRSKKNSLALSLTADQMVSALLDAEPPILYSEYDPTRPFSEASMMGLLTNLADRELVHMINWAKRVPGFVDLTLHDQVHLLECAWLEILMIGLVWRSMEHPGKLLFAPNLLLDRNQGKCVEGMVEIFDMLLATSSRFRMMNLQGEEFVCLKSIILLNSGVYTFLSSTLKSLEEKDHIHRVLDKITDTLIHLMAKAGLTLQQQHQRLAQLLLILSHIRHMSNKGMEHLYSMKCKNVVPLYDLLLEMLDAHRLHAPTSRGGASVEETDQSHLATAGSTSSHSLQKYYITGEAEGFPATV

[2] = relative to other estrogens; cited from earlier work
[3] = tested on: human hematopoietic progenitors (CB-CD34+); assay: LTC-IC human bone marrow-like co-culture (hMSC + hCD34+) and CFU assay; format: cell-based
Method: LTC-IC was established through the co-culture of human bone marrow Mesenchymal Stromal Cells (BM-MSC) and human progenitors (CB-CD34+) to research the positive effects of the estrogens in a human context, such as an in vitro human bone marrow model. LTC-ICs were treated with vehicle or 100 µM of E2 or E4 for a week. […] Cells were plated in methycellulose media with specific hematopoietic cytokines to evaluate the hematopoietic progenitor content. After 14 days, colony forming units (CFU) were counted. Data were normalized to control groups. […] 1×10^5 human mesenchymal stromal cells (hMSC) were seeded in a p6 well and irradiated with 30 Gy next day. The following day, 5×10^4 hCD34^+ were added to the hMSC in LTC-IC media: 75% α-MEM without Phenol Red (Life Technologies), 12.5% Hyclone FBS (GE Healthcare), HS (Life Technologies), β-mercaptoethanol (Life Technologies), 0.5% PS and 1×10^−6 M Hydrocortisone (Sigma-Aldrich). 100 μM of estrogens, dissolved in ethanol, was added to the co-culture for a week, and then the cells were collected and the amount of human hematopoietic progenitors were evaluated in semisolid media supplement with specific hematopoietic cytokines (H4535, StemCell Technologies) plus 8 U/ml hEPO. After fourteen days, colony-forming units (CFU) were evaluated and normalized to the control: […]

C[C@]12CC[C@@H]3c4ccc(O)cc4CC[C@H]3[C@@H]1[C@@H](O)[C@@H](O)[C@@H]2O [E4, estetrol]
proportion of engrafted mice (human engraftment above 0.1%) (human cord blood CD34+; 5×10^3 CB-CD34+): 70%
change of the proportion of engrafted mice versus vehicle (human cord blood CD34+; limited HPC dose, engraftment above 0.1%): almost tripled
Percentage of human hematopoietic reconstitution (human cord blood CD34+; low dose 5×103 hCD34+, mean +/− SEM): 3.20 +/− 1.43 (n = 9) %
Percentage in the human hematopoietic population: hematopoietic stem cells ([1]; hCD34+/hCD38−, male NSG, 5×10^4 CD34+, 2 μg daily for four days, mean +/− SEM): 0.87 +/− 0.11 (n = 11) %
Percentage in the human hematopoietic population: hematopoietic progenitors ([1]; hCD34+, male NSG, 5×10^4 CD34+, 2 μg daily for four days, mean +/− SEM): 13.94 +/− 0.85 (n = 11) %
Percentage of human hematopoietic reconstitution ([1]; male NSG, 5×10^4 CD34+, 2 μg daily for four days, three-four months later, mean +/− SEM): 47.47 +/− 6.08 (n = 9) %
Percentage in the human hematopoietic population: Lymphoid ([1]; male NSG, 5×10^4 CD34+, 2 μg daily for four days, CD19+, mean +/− SEM): 81.22 +/− 4.83 (n = 5) %
Percentage in the human hematopoietic population: Myeloid ([1]; male NSG, 5×10^4 CD34+, 2 μg daily for four days, CD33+, mean +/− SEM): 8.24 +/− 1.65 (n = 5) %
human hematopoietic progenitors (hCD34+) and human HSC (hCD34+CD38−) in the human engraftment, significance ([1]; three months post-transplant, Kruskal-Wallis P<0.05): statistically significant differences compared to controls and E2 treated group
affinity for ER relative to β-estradiol (ESRα): less affinity than β-estradiol
affinity for ESRα versus ESRβ (ESRα): high affinity for ESRα as compared to the ESRβ
in vivo half-life [2]: considerably longer than that of other estrogens
Normalized human CFU ([3]; 100 μM estrogen for a week, CFU after fourteen days, normalized to control, mean +/− SEM): 1.98 +/− 0.23 (n = 6)
total number of primitive hematopoietic progenitors in LTC-IC ([3]; 100 μM for a week, versus vehicle): almost doubled
